According to ChEMBL document CHEMBL1126104, “Synthesis and antiviral activity of some new S-adenosyl-L-homocysteine derivatives” (1992):
Values after ≈ are worked out from the molar mass of the structure shown.

Key:
[1] = tested on: Human immunodeficiency virus 1; test: Antiviral activity against (HIV-1) in MT-4 cells Value in parentheses is inhibitory concentration for cell growth (MT-4); format: functional, MT4
Human alphaherpesvirus 2 = test: Antiviral activity against HSV-2(G) strain in primary rabbit kidney (PRK) / embryonic skin-muscle (E6SM) fibroblast culture lines; format: functional; conditions: Human alphaherpesvirus 2, Muscle tissue
Coxsackievirus B4 [2] = test: Antiviral activity against coxsackie B4 in Vero cell culture lines; format: functional; conditions: Enterovirus B
Coxsackievirus B4 [3] = test: Antiviral activity against coxsackie B4 virus in HeLa cell culture lines; format: functional; conditions: Enterovirus B
Semliki Forest virus = test: Antiviral activity against semliki forest virus (SFV) in Vero cell culture lines; format: functional
[4] = tested on: Vesicular stomatitis virus; test: Antiviral activity against vesicular stomatitis virus (VSV) in HeLa cell culture lines,; format: functional
[5] = tested on: Vesicular stomatitis virus; test: Antiviral activity against vesicular stomatitis virus (VSV) in primary rabbit kidney (PRK) / embryonic skin-muscle (E6SM) fibroblast culture lines; format: functional; conditions: Muscle tissue
Vaccinia virus = test: Antiviral activity against vaccinia virus (VV) in primary rabbit kidney (PRK) / embryonic skin-muscle (E6SM) fibroblast culture lines; format: functional; conditions: Orthopoxvirus vaccinia, Muscle tissue
Human alphaherpesvirus 1 = test: Antiviral activity against HSV-1(KOS) strain in primary rabbit kidney (PRK) / embryonic skin-muscle (E6SM) fibroblast culture lines; format: functional; conditions: Human alphaherpesvirus 1, Muscle tissue
Poliovirus 1 = test: Antiviral activity against polio virus type 1 in HeLa cell culture lines; format: functional; conditions: Enterovirus C
Human respirovirus 3 = test: Antiviral activity against parainfluenza virus type 3 in Vero cell culture lines; format: functional
Sindbis virus = test: Antiviral activity against sindbis virus in Vero cell culture lines; format: functional
[6] = tested on: Mammalian orthoreovirus 1; test: Antiviral activity against reovirus type 1 in Vero cell culture lines; format: functional

Compound | MIC [1] | MIC (Human alphaherpesvirus 2) | MIC (Coxsackievirus B4 [2]) | MIC (Coxsackievirus B4 [3]) | MIC (Semliki Forest virus) | MIC [4] | MIC [5] | MIC (Vaccinia virus) | MIC (Human alphaherpesvirus 1) | MIC (Poliovirus 1) | MIC (Human respirovirus 3) | MIC (Sindbis virus) | MIC [6]
Nc1ncnc2c1ncn2[C@@H]1O[C@H](CSCCC(N)C(=O)O)C[C@H]1O (stereo partly drawn) | > 100 µg/mL | > 100 µg/mL | > 200 µg/mL | > 200 µg/mL | > 100 µg/mL | > 200 µg/mL | > 100 µg/mL | > 200 µg/mL | > 100 µg/mL | > 200 µg/mL | > 200 µg/mL | > 200 µg/mL | > 200 µg/mL
Nc1ncnc2c([C@@H]3O[C@H](CSCCC(N)C(=O)O)C[C@H]3O)n[nH]c12 (stereo partly drawn) | > 100 µg/mL | > 40 µg/mL | > 40 µg/mL | > 40 µg/mL | > 40 µg/mL | > 40 µg/mL | > 40 µg/mL | > 40 µg/mL | > 40 µg/mL | > 40 µg/mL | > 40 µg/mL | > 40 µg/mL | > 40 µg/mL
COCC(=O)NC(CCSC[C@H]1OC(n2ccc3c(N)ncnc32)[C@H](O)[C@@H]1O)C(=O)O (stereo partly drawn) | > 200 µg/mL | > 400 µg/mL | > 400 µg/mL | > 400 µg/mL | > 400 µg/mL | > 400 µg/mL | > 20 µg/mL | > 400 µg/mL | > 400 µg/mL | > 400 µg/mL | > 400 µg/mL | > 400 µg/mL | > 400 µg/mL
Nc1nccc2ncn([C@H]3C[C@H](O)[C@@H](CO)O3)c12 | > 50 µg/mL | 100 µg/mL (≈ 400 µM) | > 400 µg/mL | > 200 µg/mL | > 400 µg/mL | > 200 µg/mL | > 200 µg/mL | > 200 µg/mL | 150 µg/mL (≈ 599 µM) | > 200 µg/mL | > 400 µg/mL | > 400 µg/mL | > 400 µg/mL
CCCCOC(=O)C(N)CCSC[C@H]1OC(n2ccc3c(N)ncnc32)[C@H](O)[C@@H]1O (stereo partly drawn) | > 1.6 µg/mL | > 10 µg/mL | > 200 µg/mL | > 40 µg/mL | > 200 µg/mL | 7 µg/mL (≈ 15.9 µM) | 20 µg/mL (≈ 45.5 µM) | 2 µg/mL (≈ 4.55 µM) | 20 µg/mL (≈ 45.5 µM) | > 100 µg/mL | 150 µg/mL (≈ 341 µM) | > 200 µg/mL | 70 µg/mL (≈ 159 µM)
CCOC(=O)C(CCSC[C@H]1OC(n2ccc3c(N)ncnc32)[C@H](O)[C@@H]1O)NC(=O)C(F)(F)F (stereo partly drawn) | > 4 µg/mL | 10 µg/mL (≈ 19.7 µM) | 7 µg/mL (≈ 13.8 µM) | 20 µg/mL (≈ 39.4 µM) | > 40 µg/mL | 4 µg/mL (≈ 7.88 µM) | 2 µg/mL (≈ 3.94 µM) | 7 µg/mL (≈ 13.8 µM) | 7 µg/mL (≈ 13.8 µM) | 20 µg/mL (≈ 39.4 µM) | > 20 µg/mL | > 20 µg/mL | > 20 µg/mL
Nc1nccc2c1ncn2[C@@H]1O[C@H](CO)C[C@H]1O | > 20 µg/mL | 70 µg/mL (≈ 280 µM) | > 100 µg/mL | > 40 µg/mL | > 100 µg/mL | > 40 µg/mL | > 100 µg/mL | > 40 µg/mL | > 100 µg/mL | > 40 µg/mL | > 100 µg/mL | > 100 µg/mL | > 100 µg/mL
Nc1ncnc2c([C@H]3CC[C@@H](CCl)O3)n[nH]c12 | > 100 µg/mL | > 200 µg/mL | > 200 µg/mL | > 400 µg/mL | > 400 µg/mL | > 400 µg/mL | > 400 µg/mL | > 400 µg/mL | > 200 µg/mL | > 400 µg/mL | > 200 µg/mL | > 200 µg/mL | > 200 µg/mL
CC(C)(C)C(=O)ONC(CCSC[C@H]1OC(n2ccc3c(N)ncnc32)[C@H](O)[C@@H]1O)C(=O)O (stereo partly drawn) | > 200 µg/mL | > 100 µg/mL | > 400 µg/mL | > 400 µg/mL | > 400 µg/mL | > 400 µg/mL | > 100 µg/mL | 20 µg/mL (≈ 41.4 µM) | > 100 µg/mL | > 400 µg/mL | > 400 µg/mL | > 400 µg/mL | > 400 µg/mL
CC(C)(C)C(=O)ONC(CCSC[C@H]1OC(n2ccc3c(N)ncnc32)[C@H](O)[C@@H]1O)C(=O)OCC[Si](C)(C)C (stereo partly drawn) | > 8 µg/mL | > 10 µg/mL | 70 µg/mL (≈ 120 µM) | > 40 µg/mL | > 40 µg/mL | > 40 µg/mL | > 10 µg/mL | 2 µg/mL (≈ 3.43 µM) | > 10 µg/mL | > 40 µg/mL | > 40 µg/mL | > 40 µg/mL | > 40 µg/mL
CC(C)(C)C(=O)OCn1nc([C@@H]2O[C@H](CO)C[C@H]2O)c2ncnc(N)c21 | > 20 µg/mL | > 100 µg/mL | > 100 µg/mL | > 100 µg/mL | > 100 µg/mL | > 100 µg/mL | > 100 µg/mL | > 100 µg/mL | > 100 µg/mL | > 100 µg/mL | > 100 µg/mL | > 100 µg/mL | > 100 µg/mL
CC(C)OC(=O)C(CCSC[C@H]1OC(n2ccc3c(N)ncnc32)[C@H](O)[C@@H]1O)NC(=O)C(F)(F)F (stereo partly drawn) | > 4 µg/mL | 10 µg/mL (≈ 19.2 µM) | > 50 µg/mL | > 100 µg/mL | > 100 µg/mL | 20 µg/mL (≈ 38.3 µM) | 5 µg/mL (≈ 9.59 µM) | 1 µg/mL (≈ 1.92 µM) | 20 µg/mL (≈ 38.3 µM) | > 100 µg/mL | > 50 µg/mL | > 70 µg/mL | > 50 µg/mL
CCCOC(=O)C(CCSC[C@H]1OC(n2ccc3c(N)ncnc32)[C@H](O)[C@@H]1O)NC(=O)COC (stereo partly drawn) | 0.8 µg/mL (≈ 1.61 µM) | 10 µg/mL (≈ 20.1 µM) | 15 µg/mL (≈ 30.1 µM) | 100 µg/mL (≈ 201 µM) | > 70 µg/mL | > 20 µg/mL | 2 µg/mL (≈ 4.02 µM) | 4 µg/mL (≈ 8.04 µM) | 20 µg/mL (≈ 40.2 µM) | 100 µg/mL (≈ 201 µM) | 20 µg/mL (≈ 40.2 µM) | > 40 µg/mL | > 30 µg/mL
CC(=O)NC(CCSC[C@H]1OC(n2ccc3c(N)ncnc32)[C@H](O)[C@@H]1O)C(=O)OC(C)C (stereo partly drawn) | > 4 µg/mL | 40 µg/mL (≈ 85.6 µM) | 40 µg/mL (≈ 85.6 µM) | 70 µg/mL (≈ 150 µM) | > 200 µg/mL | 20 µg/mL (≈ 42.8 µM) | 10 µg/mL (≈ 21.4 µM) | 10 µg/mL (≈ 21.4 µM) | > 100 µg/mL | 100 µg/mL (≈ 214 µM) | > 100 µg/mL | > 100 µg/mL | > 70 µg/mL
CCCOC(=O)C(CCSC[C@H]1OC(n2ccc3c(N)ncnc32)[C@H](O)[C@@H]1O)NC(C)=O (stereo partly drawn) | > 4 µg/mL | 20 µg/mL (≈ 42.8 µM) | 20 µg/mL (≈ 42.8 µM) | 20 µg/mL (≈ 42.8 µM) | > 40 µg/mL | 20 µg/mL (≈ 42.8 µM) | 7 µg/mL (≈ 15 µM) | 7 µg/mL (≈ 15 µM) | 40 µg/mL (≈ 85.6 µM) | 40 µg/mL (≈ 85.6 µM) | 20 µg/mL (≈ 42.8 µM) | > 40 µg/mL | 15 µg/mL (≈ 32.1 µM)
COCC(=O)NC(CCSC[C@H]1OC(n2ccc3c(N)ncnc32)[C@H](O)[C@@H]1O)C(=O)OC(C)C (stereo partly drawn) | > 100 µg/mL | 70 µg/mL (≈ 141 µM) | > 100 µg/mL | > 200 µg/mL | > 200 µg/mL | 100 µg/mL (≈ 201 µM) | 20 µg/mL (≈ 40.2 µM) | 7 µg/mL (≈ 14.1 µM) | > 150 µg/mL | > 200 µg/mL | > 200 µg/mL | > 200 µg/mL | > 200 µg/mL
